Experiments:
[1] = Evaluation Example 3: remaining drug amount in tape preparation after storage; assay type: physicochemical; conditions: formulated into the (meth)acrylic copolymer used in the present invention; Table 3
Experimental: The tape preparation prepared in Example 4 and Comparative Examples 8 and 9 were cut into 7×10 cm squares and were placed in a polyethylene-aluminum laminate bag and all four sides of the bag were sealed.
The tape agent was stored at 40° C. and 75% R.H. for 3 months and the remaining drug amount in the tape preparation was measured in the same manner as in Evaluation Example 1.
From the residual amount of drug measured, the drug remaining rate was calculated by the following formula: [formula]

[2] = Evaluation Example 1: drug absorption to skin from residual drug amount, HPLC; conditions: formulated into the (meth)acrylic copolymer used in the present invention; Table 1
Experimental: The tape preparation or poultice preparation was peeled off 24 hours after application, and the drug remaining on the applied site was wiped off with defatted cotton containing 1 ml of distilled water. The tape preparation or poultice preparation peeled off was stirred in 200 ml of hot ethanol for 2 hours to extract the drug, cooled to room temperature, and then brought to a constant volume of 200 ml with ethanol. To 5 ml of the solution was added 5 ml of an internal standard substance (300 μg/ml of an aqueous flulubiprofen solution was used), and after bringing to a constant volume of 50 ml with ethanol, the residual drug amount was measured by high performance liquid chromatography (hereinafter abbreviated as HPLC). The defatted cotton was stirred in 200 ml of distilled water for 2 hours to extract the drug, and to 5 ml of the solution was added 5 ml of the internal standard substance. After the mixture was brought to a constant volume of 50 ml with distilled water, the remaining drug amount was measured by HPLC.
The ointment was wiped off with defatted cotton containing ethanol (10 ml of ethanol content) 24 hours after application. […] To 5 ml of the solution was added 5 ml of the above internal standard substance, and after bringing to 50 ml with ethanol, the remaining drug amount was measured by HPLC.

[3] = keratin soluble enzyme, N-acylsarcosine, aliphatic monoalkylolamide, or organic acid added; cited from earlier work
[4] = adhesives containing polar monomers; cited from earlier work

Compound	chemical stability in the preparations (in words) [1]	percutaneous absorption of the drug (in words) [2]	enhancement of the absorption by additive substance [3]	amount formulated at which crystals are not precipitated [4]
O=C(O)Cc1ccccc1Nc1c(Cl)cccc1Cl [diclofenac sodium]	poor	poor		
CC(C(=O)O)c1cccc(Oc2ccccc2)c1 (stereo not shown) [fenoprofen]			2 -fold	
COc1ccc2c(c1)c(CC(=O)O)c(C)n2C(=O)c1ccc(Cl)cc1 [indomethacin]	poor	poor	2 -fold	
CC(C(=O)O)c1cccc(C(=O)c2ccccc2)c1 (stereo not shown) [ketoprofen, 3-Benzoylhydratropic acid]				about 40 % by weight
